The record followed here is paper PMC10857906, “PROTAC-mediated NR4A1 degradation as a novel strategy for cancer immunotherapy” (The Journal of Experimental Medicine, 2024).

Assay [1] relates to NR4A1 mRNA. The assay is described as follows: NR4A1 mRNA by qPCR in CHL-1 cells. As to conditions: 500 nM, ACTB as control. The class given is cell-based, human. The method, then: Total RNA was extracted from cells using RNeasy Kits (74004; QIAGEN) following the manufacturer’s instructions. cDNA synthesis was performed using SuperScript III Reverse Transcriptase (18080044; Thermo Fisher Scientific) with 100 ng RNA as the template. Amplification of cDNA was carried out using 2× PowerUP SYBR Green Master Mix (A25778; Thermo Fisher Scientific). Each reaction was conducted in triplicates and results were normalized to the expression of a housekeeping gene. Primer (Eurofins): human β-actin (forward sequence: 5′-CACCATTGGCAATGAGCGGTTC-3′; reverse sequence: 5′-AGGTCTTTGCGGATGTCCACGT-3′) and human NR4A1 (forward sequence: 5′-GGACAACGCTTCATGCCAGCAT-3′; reverse sequence: 5′-CCTTGTTAGCCAGGCAGATGTAC-3′).
(In general: Real-time PCR tracks product formation cycle by cycle.)

For assay [2], the system named is TI-B cells. The assay is described as follows: Immune profile by flow cytometry in Yumm1.7 tumor-bearing mice. The settings on record: Yumm1.7 tumors, 2 doses of 1.8 mg/kg i.p. The class given is in vivo, mouse. The procedure: For syngeneic tumor models, 5 × 10^5 cells MC38, Yumm1.7, and Yummer1.7, 1 × 10^5 cells of B16F10 were resuspended in PBS and implanted into 7–9-wk-old mice subcutaneously. For the tumor inhibition experiment, mice were treated with 1.8 mg/kg NR-V04 or 0.75 mg/kg celastrol by i.p. injection twice weekly. For the immune profile experiment, once tumors reached 0.5 cm in diameter, mice were treated with 1.8 mg/kg NR-V04 by i.p. injection twice weekly. For the toxicity experiment, male and female non-tumor-bearing mice were treated with 2 mg/kg NR-V04 for two doses in the first week and 5 mg/kg for another two doses in the second week. Blood samples were taken from the submandibular (facial) vein before each treatment and 42 days later for hematological analysis, and body weight was measured twice per week up to day 42. Mice were euthanized in accordance with the IACUC protocol once the largest tumors reached 2 cm in diameter, and tissues were collected for further analysis.
Mouse tumors were excised and ∼200 mg of tumor tissue was enzymatically and mechanically digested using the mouse Tumor Dissociation Kit (Miltenyi Biotec) to obtain a single-cell suspension. […] Flow cytometry was performed on a three laser Cytek Aurora Cytometer (Cytek Biosciences) and analyzed using FlowJo software (BD Biosciences). […]
On the technique in general: A flow cytometer gives signals particle by particle.

Regarding `CC1=C(O)C(=O)C=C2C1=CC=C1[C@@]2(C)CC[C@@]2(C)[C@@H]3C[C@](C)(C(=O)NCCOCCOCCOCCOCC(=O)N[C@H](C(=O)N4C[C@H](O)C[C@H]4C(=O)N[C@@H](C)c4ccc(-c5scnc5C)cc4)C(C)(C)C)CC[C@]3(C)CC[C@]12C` [NR-V04], in assay [1], the “NR4A1 mRNA level” value is “increased NR4A1 mRNA after 4 h”. Further, the TI-B cells result in assay [2] is “significant increase in the TI-B cells”.
